Read-outs that look alike come from different tables or passages of the source.
Experiments:
[1] = test system: RAW 264.7 murine monocyte/macrophage line; assay: Assay for Anti-inflammatory Activity by Inhibition of Macrophage Chemiluminescence (respiratory burst, PMA-stimulated mouse macrophages); format: cell-based
Text: The RAW 264.7 cell line (available from the ATCC under accession no. TIB 71) is a murine monocyte/macrophage line the cells of which show many of the differentiative functions of a macrophage. Like macrophages, the cells are capable of phagocytosis and undergo an oxidative burst (increased oxygen consumption) and production of oxygen radicals (e.g., superoxide) in response to appropriate signals. Agents that inhibit the activation of these cells in vitro, so as to inhibit the respiratory burst and corresponding production of oxygen radicals associated with the activation, are therefore inhibitors of macrophage activation and critical steps in inflammatory processes.
The respiratory burst and corresponding production of oxygen radicals that accompany macrophage activation can be measured in a variety of ways, including chemiluminescence based on the reaction of the oxygen radicals with luminol added to the culture medium (see M. A. Trush et at., 1978, "The Generation of Chemiluminescence by Phagocytic Cells." Methods in Enzymology 57: 462-494). Indeed, chemiluminescence generated from luminol in the culture medium of macrophage cell lines is recognized in the art as a marker of macrophage activation.
1. Cell line: Raw 264.7 (ATCC TIB-71, attachment dependent);
2. Culture medium: DMEM with 10% FBS;
(§1) 3. Standard protocol for culturing cell lines: in T-75 or T-150 flasks; 37° C.; 95% air, 5% CO2; 100% humidity;
a. Cell line is passaged when approximately 80% confluent; with trypsin (1 mg/ml) and EDTA ([…] in ca-MG free Hank's balanced salt solution); at a 1:4 to 1:5 split;
b. All procedures are performed aseptically in a class II biological safety cabinet using standard BL-2 containment procedures. In order to prevent genetic drift in stock cell lines, fresh cultures are prepared at approximately monthly intervals with cells thawed from liquid nitrogen storage.
a. After cell passage, count cells with a hemacytometer;
b. Adjust cell concentration to approximately 1,000,000 cells per mL;
c. Suspend cells in DMEM lacking phenol red and without FBS;
d. Pipette 1 mL of cell suspension into a standard luminometer cuvet (12×75), commercially obtainable from Analytical Luminescence Laboratories, San Diego, Calif., USA;
e. Add luminol to final concentration of 0.2 μM;
f. Add test compound dissolved in phosphate buffered saline (PBS), or in DMSO for the comparative compound, vitamin D3, for final concentration levels ranging from 0 to 30 μM;
g. Add 100 nanograms of phorbol myristate acetate (PMA); and
h. Wait 1 minute and read photo counts (i.e., luminescence) on a Monolight 2010 luminometer available from Analytical Luminescence Laboratories, San Diego.
Background--no test compound present; no PMA present;
Control--no test compound present;
Calculate: [formula] where L is luminescence. 6.

[2] = test system: MDA-MB-231 Human Breast Cancer Cell; assay: in vitro MDA-MB-231 Human Breast Cancer Cell inhibition assay (sulforhodamine B); format: cell-based; conditions: at 100 μM; 48 hours; FIG. 1
Text: FIG. 1 is a graphical representation of results from an in vitro MDA-MB-231 Human Breast Cancer Cell inhibition assay of a compound of the invention, designated CPR 2005, in comparison with vitamin D3.
(§2) 1. Human tumor cell lines, obtainable from the American Type Culture Collection (ATCC):
a. MDA-MB-231 (ATCC HTB-26): an estrogen receptor negative human breast carcinoma cell line (attachment dependent); and
a. For cell line 1-a: Dulbecco's Modified Eagle's Medium (DMEM) plus 10% Fetal Bovine Serum (FBS); and
as §1
a. […]
(§3) h. Read absorbance at 562 nm using a standard 96-well microtiler plate reader. Absorbance readings are linear with dye concentrations below 1.8 absorbance units. To reduce absorbance, decrease wavelength at which measurements are taken;
(§4) single point reading: the higher the absorbance, the higher the […]; […]
(§5) initial control cell number (ICCN)--no test compound present in culture medium, end point was determined at the time of treatment;
(§6) final control cell number (FCCN)--no test compound present in culture medium, end point was determined at […] after treatment;
(§7) final cell number (FCN)--test compound present in culture medium, end point was determined at 48 hours after treatment; […]
(§8) FCN=A(test compound, 48 hours)-A(Background) [formula] where A is absorbance. […]

[3] = test system: HT-29 Human Colon Cancer Cells; assay: in vitro HT-29 Human Colon Cancer Cells inhibition assay (sulforhodamine B); format: cell-based; conditions: at concentrations above 30 μM; 48 hours; FIG. 2
Text: FIG. 2 is a graphical representation of results from an in vitro HT-29 Human Colon Cancer Cells inhibition assay of a compound of the invention, designated CPR 2005, in comparison with Vitamin D3.
as §2
b. HT-29 (ATCC HTB-38): a human colon caminoma cell line (attachment dependent).
b. For cell line 1-b: 1:1 DMEM and Ham's F-12 (DMEM/F12) plus 10% FBS.
as §1
a. […]
as §3, §4, §5, §6, §7, §8

[4] = test system: PAM-212 Mouse Keratinocytes; assay: in vitro PAM-212 Mouse Keratinocytes inhibition assay (anti-psoriasis); format: cell-based; conditions: at concentrations above 30 μM, 48 hours, FIG. 3
Text: FIG. 3 is a graphical representation of results from an in vitro PAM-212 Mouse Keratinocytes inhibition assay of a compound of the invention, designated CPR 2005, in comparison with vitamin D3.
Psoriasis is a chronic inflammatory dermatosis characterized, in part, by hyper-proliferation of keratinocytes and release of pro-inflammatory cytokines. Compounds that reduce hyperproliferation of keratinocytes in vitro are likely to have utility in the control of psoriasis.
1. Cell line: PAM-212 murine keratinocyte cell line isolated and cultivated from newborn BALB/c mice (see S. H. Yuspa et al., Cancer Research, Vol. 40, pp. 4694-4703, December, 1980) that appears to retain many characteristics of normal keratinocytes.
2. Culture medium: 1:1 DMEM and Ham's F-12 with 10% FBS.
3. Culture conditions are the same as those described in part 3 of the assay protocol for anti-tumor activity.
4. Methodology is the same as that described in part 4 of the assay protocol for anti-tumor activity, except that, with reference to part 4(b) of the assay protocol for anti-tumor activity, cell concentration in this case is adjusted to 1,000 cells per 100 μL (rather than 5,000 cells per 100 μL).
5. End point determination and analysis are as described in part 5 of the assay protocol for anti-tumor activity.

[5] = test system: PMA-Induced Inflammation in Ears of CD-1 Mice; assay: PMA-induced inflammation in mouse ears; format: in vivo, mouse (CD-1); conditions: 6 hours
Procedure: A common in vivo model for the evaluation of anti-inflammatory agents is PMA-induced inflammation in mouse ears. This method is described in "Pharmacological Methods in the Control of Inflammation", Joseph Y. Chang and Alan J. Lewis (eds), Alan R. Liss, Inc., N.Y., pp 221-223. In this assay, edema, which is a characteristic of inflammation, is quantified by determining ear thickness or ear weight approximately 6 hours after applying PMA to the ear.
1. Mice: Male CD-1, 21-24 g (Product Number 3002) obtainable from Harlan Sprague Dawley, Indianapolis, Ind., USA;
a. Prepare 0.01% (w/v) PMA in a mixture of equal volumes of acetone and ethanol;
b. Prepare 0.01% (w/v) PMA and 5% (w/v) test compound in a mixture of equal volumes of acetone and ethanol;
c. Divide 9 mice into 3 groups of 3 mice each;
d. Leave one group of mice untreated;
e. Treat the second group of mice by applying 20 μL of PMA solution to both ears using a micropipetter;
f. Treat the third group of mice by applying 20 μL of PMA solution to the right ear and 20 μL of PMA/test compound solution to the left ear;
g. Wait 6 hours and euthanize the mice in a CO2 chamber;
h. Cut the ears and punch out circles of 6-mm diameter; and
I. Measure the weight of three appropriate ear punches in the same group together.

[6] = Mus musculus, RAW264.7, read-out: % Inhibition of Respiratory Burst

SMILES: C=C1CC[C@H](O)C/C1=C/C=C1\CCC[C@]2(C)[C@@H]([C@H](C)CCCC(C)C)CC[C@@H]12 [Vitamin D3, 9, 10-secocholesta-5,7,10(19)-trien-3-ol, reference compound]
- inhibition at 1 µM [1, 6]: 10%
- inhibition at 3 µM [1, 6]: 9%
- inhibition at 10 µM [1, 6]: 2%
- inhibition at 30 µM [1, 6]: 12%

SMILES: C=C1CC[C@H](OP(=O)([O-])OCC[N+](C)(C)C)C/C1=C/C=C1\CCC[C@]2(C)[C@@H]([C@H](C)CCCC(C)C)CC[C@@H]12 [CPR 2005, (5Z,7E)-(3S)-9,10-Secocholesta-5,7,10(19)-trien-3-phosphocholine]
- inhibition of MDA-MB-231 cell growth [2]: marked inhibition
- inhibition of HT-29 cell growth [3]: marked inhibition
- inhibition of keratinocyte proliferation [4]: marked inhibition
- inhibition at 1 µM ([1]; RAW264.7, Concentration 1 μM, PMA-Stimulated Mouse Macrophages, read-out: % Inhibition of Respiratory Burst): 45%
- inhibition at 3 µM ([1]; RAW264.7, Concentration 3 μM, PMA-Stimulated Mouse Macrophages, read-out: % Inhibition of Respiratory Burst): 90%
- inhibition at 10 µM ([1]; RAW264.7, Concentration 10 μM, PMA-Stimulated Mouse Macrophages, read-out: % Inhibition of Respiratory Burst): 98%
- inhibition at 30 µM ([1]; RAW264.7, Concentration 30 μM, PMA-Stimulated Mouse Macrophages, read-out: % Inhibition of Respiratory Burst): 99%
- inhibition of luminescence ([1]; at concentrations above 1 μM, PMA-stimulated): marked inhibition
- Average Weight of Punched Ear, left ear ([5]; CPR 2005 + PMA (left ear), PMA (right ear, 30 mg), PMA both ears: left 34, right 28, untreated 12, 20 μL of 0.01% PMA / 5% (w/v) test compound): 15 mg
- inhibition of PMA-induced inflammation in mouse ear ([5]; topical, 5% (w/v) test compound): marked inhibition
